Legend:
BALB/c mice [1] = assay: Effect on mouse delayed-type hypersensitivity reaction (DTH reaction), swelling of the sole; assay type: in vivo; settings: Intraperitoneal, administration period 7 days, 100 mg/kg/single administration
Description: Effect on Mouse Delayed-Type Hypersensitivity Reaction (DTH Reaction)
1.0×10^5 sheep erythrocytes (Nippon Seibutsu Zairyo Center, Co., Ltd.) were administered to each of BALB/c mice (Charles River Japan, Inc.; female; 8-week-old) by intravenous injection for sensitization. From the day of administration of the sheep erythrocytes, a test compound was administered to the mouse. As a control, a 0.5% carboxymethyl cellulose (CMC)-Na solution and a normal saline solution used as solvents were administered to the same type of mouse via oral administration or intraperitoneal administration. Five days after the antigen sensitization, 1.0×10^8 sheep erythrocytes were subcutaneously injected into the sole of the mouse. 24 hours later, the thickness of the sole was measured. The value obtained by subtracting the mean value of the thicknesses of the soles of mice, to which a normal saline solution had been administered instead of the sheep erythrocytes, from the above measurement value, was defined as swelling of the sole generated as a result of the DTH reaction. The inhibition rate of the swelling of the sole caused by the DTH reaction was calculated using the following formula (5). The amount of the test compound necessary for inhibition of 50% (ED50 value) was obtained as the activity of the test compound to inhibit the DTH reaction. It is to be noted that cyclosporin A was used as a positive control.
[formula] • Eexp: Swelling of sole of mouse to which test compound was administered • Cexp: Swelling of sole of mouse to which solvent was administered

[2] = test system: MHC class I molecules of T1 cells (human lymphoma cell line 174×CEM.); assay: Effect on expression of MHC class I from T1 cells (flow cytometry, MFI); assay type: cell-based; settings: 3 days culture
In short: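 EC20 is the compound level that lowers MHC class I MFI by 20% relative to compound-free cultures. Read-out was flow cytometry after FITC W6/32 staining.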

BALB/c mice [3] = assay: Effect on mouse plaque forming cells (PFCs) to sheep erythrocytes; assay type: in vivo; settings: Intraperitoneal, 25 mg/kg/single administration, twice a day for 4 days
Description: Effect on Mouse Plaque Forming Cells (PFCs)
Sheep erythrocytes (Nippon Seibutsu Zairyo Center, Co., Ltd.) were intraperitoneally administered to each of BALB/c mice (Charles River Japan, Inc.; female; 8-week-old) at an amount of 1.0×10^8 cells. Thereafter, a test compound was administered thereto twice a day for 4 days after the first administration (only once on the first day) (n=4). On the day subsequent to completion of the administration of the test compound, splenic cells were prepared from the mouse, and the number of PFCs to the sheep erythrocytes was counted by the method of Cunninham (Cunninham, A. J. et al., Immunology, vol. 14, p. 599 (1968)). The number of PFCs per number of splenic cells of 1.0×10^6 was obtained. The reduction rate of the number of PFC in the mouse to which the test compound had been administered, to the number of PFCs in a control mouse to which the test compound had not been administered but only a solvent had been administered, was calculated using the following formula (4).
[formula] • Eexp: The number of PFCs per 1×10^6 splenic cells of mouse to which test compound was administered • Cexp: The number of PFCs per 1×10^6 splenic cells of mouse to which solvent was administered

[4] = test system: MHC class I molecules of human peripheral blood-derived dendritic cells; assay: Effect on expression of MHC class I molecules from human peripheral blood-derived dendritic cells; assay type: cell-based; settings: dendritic cells matured with TNF-α, 3 days; read-out: EC50 (reduction of 50% of the number of cells wherein MHC class I molecules were highly expressed)
Source text: Effect on Expression of MHC Class I Molecules from Human Peripheral Blood-Derived Dendritic Cells
Monocytes were isolated from human peripheral blood by the specific gravity centrifugation method. Thereafter, using mouse anti-human CD14 antibody-binding microbeads and a magnetic cell separation system (Miltenyi Biotec), CD14 positive cells were separated from the peripheral blood monocytes. The separated CD14 positive cells were suspended in an RPMI 1640 medium containing 10% FBS, and the suspension was then inoculated in a 6-well plate, resulting in a concentration of 1.0×10^6 cells/well. It was cultured at 37° C. for 20 minutes in an incubator containing 5% carbon dioxide. […] Thereafter, RPMI 1640 containing a 500 U/ml human recombinant […] (hereinafter referred to as GM-CSF; Anapure Bioscientific), 50 ng/ml human recombinant interleukin 4 (hereinafter referred to as IL-4; Pepro Tech), and 10% FBS, was added to the remaining suspension at a concentration of 2 ml/well. The obtained mixture was then cultured at 37° C. in an incubator containing 5% carbon dioxide. When adhesive CD14 positive cells are cultured in the presence of GM-CSF and IL-4, the CD14 positive cells were differentiated into non-adhesive immature dendritic cells. After the cells had been cultured for 7 days, non-adhesive cells were recovered to obtain immature dendritic cells. Using a 6-well plate, the immature dendritic cells (2.5×10^5 cells/well) were cultured in RPMI 1640 containing a 100 U/ml human recombinant tumor necrosis factor-α (hereinafter referred to as TNF-a; Pepro Tech), a test compound, and 10% FBS, at 37° C. for 3 days in an incubator containing 5% carbon dioxide. The dendritic cells became mature as a result of the presence of TNF-α, but in the present test, a test compound was allowed to simultaneously act on the cells. The mature dendritic cells were then stained with fluoroisothiocyanate-labeled mouse anti-human MHC class I monoclonal antibody (an antibody generated from the cell line W6/32 (ATCC No. CRL 1991)). The rate of the number of cells wherein MHC class I molecules were highly expressed to the total number of cells was measured by flow cytometry. The reduction rate of the number of cells wherein MHC class I molecules were highly expressed was calculated using the following formula (2), and the concentrations of test compounds necessary for reduction of 50% (EC50 values) were obtained.
[formula] • Eexp: (The number of cells, wherein MHC class I molecules are highly expressed, in cultured cells containing test compound)/(the total number of cells) • Cexp: (The number of cells, wherein MHC class I molecules are highly expressed, in cultured cells containing no test compounds)/(the total number of cells)

[5] = test system: human dendritic cells cultured with human allogenic T cells; assay: Effect on the ability of human dendritic cells to induce the growth of allogenic T cells ([3H]-thymidine incorporation); assay type: cell-based; settings: Homo sapiens; dendritic cells treated 3 days with test compound and TNF-α, then 5 days with allogenic T cells; read-out: IC50 (inhibition of DNA synthesis of lymphocytes)
Description: Effect on the Ability of Human Dendritic Cells to Induce the Growth of Allogenic T Cells
Immature dendritic cells were cultured with a test compound and TNF-α for 3 days by the same method as that described in Test Example 2. The obtained dendritic cells (2.5×10^3 cells/50 μl/well) were cultured together with human allogenic T cells (2.0×10^5 cells/150 μl/well) in a 96-well flat bottom plate at 37° C. for 5 days in an incubator containing 5% carbon dioxide. Thereafter, [^3H]-thymidine (Amersham Pharmacia Biotech) was added thereto at an amount of 1 μCi/10 μl/well, 16 hours before completion of the culture. After completion of the culture, cells were captured on a glass filter using a cell harvester (Skatron Instrument) and then dried. Thereafter, Scintillator ACS-II (Amersham Pharmacia Biotech) was added thereto, and the radioactivity of [^3H]-thymidine incorporated into the cells were then measured using a liquid scintillation counter. The inhibition rate of the DNA synthesis of lymphocytes was calculated using the following formula (3). Thereafter, the concentration of a test compound necessary for inhibition of 50% (IC50 value) was obtained.
[formula] • Eexp: The amount of [^3H]-thymidine incorporated into cultured cells containing test compound • Cexp: The amount of [^3H]-thymidine incorporated into cultured cells containing no test compounds

BDF1 mice = assay: Effect on graft versus host (GVH) reaction, spleen weight measurement method; assay type: in vivo, mouse; settings: subcutaneous, twice a day for 7 days
Description: Effect on Graft Versus Host (GVH) Reaction
The effect of the compound on the GVH reaction was determined in accordance with the spleen weight measurement method of Simonsen et al. (Simonsen et al., Annals of the New York Academy of Sciences, p. 73 (1978)). Splenic cells were prepared from C57BL/6 mice (Charles River Japan, Inc.; female; 10-week-old), and the cells (5.0×10^6 cells) were transferred into the abdominal cavity of each of BDF1 mice (Charles River Japan; […]). From the day of transferring of the above cells, the test compound having each diluted concentration or a 5% glucose solution used as a solvent was subcutaneously administered to the BDF1 mice twice a day for 7 consecutive days. Eight days after the transferring of the above cells, the spleen weight of each of the BDF1 mice was measured. The reduction rate of the spleen weight was calculated using the following formula (6). The amount of the test compound necessary for reduction of 50% (ED50 value) was obtained.
[formula] • Eexp: Spleen weight of mouse to which test compound was administered • Cexp: Spleen weight of mouse to which solvent was administered

Row | Compound | Inhibition rate (%) of swelling of the sole (BALB/c mice [1]) | EC20 (concentration necessary for suppressing 20% of the expression level of MHC class I molecules) [2] | Reduction rate (%) of number of PFCs (BALB/c mice [3]) | EC50 [4] | IC50 [5] | Inhibition rate (%) (reduction rate of the spleen weight) (BDF1 mice; 25 × 2 mg/kg/single administration) | Inhibition rate (%) (reduction rate of the spleen weight) (BDF1 mice; 50 × 2 mg/kg/single administration)
1 | COc1ccc(-c2ccnc3nc(NC(=O)N[C@H](C(=O)NCCN4CCCCC4)C(C)C)nn23)cc1.Cl [Example 135] | 40.2% | 810 nM |  |  |  |  | 
2 | COc1ccc(-c2ccnc3nc(NC(=O)N[C@H]4CC[C@H](O)CC4)nn23)cc1 [Example 037] |  | 200 nM | 31.2% | 200 nM | 1360 nM |  | 
3 | COc1ccc(-c2ccnc3nc(NC(=O)NCc4cccnc4)nn23)cc1 [Example 039] |  | 300 nM |  | 540 nM | 1520 nM | 14.1% | 29.5%

— patent publication US7598244B2, “[1,2,4]triazolo[1,5,a]pyrimidin-2-ylurea derivative and use thereof” (Nippon Kayaku Kabushiki Kaisha, priority 2003, dated 2009)
